One series has as its system HIV-1 VLP assembly. Put plainly: microbe, parasite or virus in culture. The conditions noted are these: for IC50: Human immunodeficiency virus 1, 24 h; for SI (ratio CC50:IC50): selectivity index. As for the experimental part: Cell culture medium was then harvested at 48 h pi, subjected to the 2-step ultracentrifugation analysis, and each gradient fraction probed for Gag polyprotein and luciferase activity, as above. […] The gradient fractions corresponding to the peak of luciferase activity were pooled, and the VLP contained in these fractions were pelleted, lysed and assayed for luciferase content.
Drug treatment was maintained for a further 24 h, and VLP released in the cell culture medium were pelleted through a sucrose cushion. The amounts of extracellular VLP recovered in the 48 h-pellets obtained in the presence of the different inhibitors were determined using the luciferase assays. After normalization to the luciferase activity determined in the corresponding cell lysates, the values of the ratio of VLP-incorporated to cell-associated luciferase activity were plotted versus the drug concentrations.
Sf9 cell culture supernatants were clarified by low-speed centrifugation, then VLP recovered using a two-step procedure comprising a sucrose-step gradient centrifugation, followed by an ultracentrifugation in linear D2O-sucrose gradient, [53]. (i) In the first step, VLP contained in the cell culture medium were pelleted through a sucrose cushion (20%, w:v, in TNE buffer; TNE: 100 mM NaCl, 10 mM Tris-HCl pH 7.4, 1 mM Na2EDTA) at 30 krpm for 1 h at 15°C in a Kontron TST55.5 rotor [12]. Pelleted VLP of step (i) were then gently resuspended in PBS (0.20–0.25 ml), and (ii) further analyzed by isopycnic ultracentrifugation in sucrose-D2O gradients, [53]. Linear gradients (10-ml total volume, 30–50%, w:v) were centrifuged for 18 h at 28 krpm in a Beckman SW41 rotor. The 50% sucrose solution was made in D2O buffered to pH 7.2 with NaOH, and the 30% sucrose solution was made in 10 mM Tris-HCl, pH 7.2, 150 mM NaCl, 5.7 mM Na2EDTA. Aliquots of 0.5 ml were collected from the top, and fractions analyzed for protein content by SDS-PAGE and immunoblotting, and by luciferase assay as described below.
Aliquots of Sf9 cells (10^6) were infected with two recombinant baculoviruses at equal multiplicity of infection (MOI of 10 PFU/cell, each). One expressed the HIV-1 Gag precursor (AcMNPV-Pr55Gag or control, p6-deleted AcMNPV-GagΔp6), the other the control Vpr protein (AcMNPV-Vpr) or the LucVpr fusion (AcMNPV-LucVpr). […] To avoid any interference with a possible effect of DMSO, DMSO was kept constant in volume in the different samples. […] Cells were harvested at 48 h pi, and extracellular VLP released in the culture medium were quantitated using luciferase assay. Membrane-enveloped VLP were pelleted and resuspended in lysis KDT buffer (KDT: 0.1 M potassium phosphate buffer, pH 7.8, 1 mM DTT, containing 0.2% Triton X100) for 30 min at 37°C with vortexing every 10 min. Luciferase activity associated with VLP was measured as previously described, using a Lumat LB-9501 luminometer (Berthold Technologies, Bad Wildbad, Germany). […] To compensate for eventual negative effects of drugs on LucVpr expression, the luciferase activity was measured in the corresponding cell lysates, obtained after lysis of the pelleted cells with KDT buffer. The results were expressed as relative light units (RLU) per µg protein. The values of the ratio of VLP-associated to intracellular luciferase activity were plotted versus the inhibitor concentration.

The nature of another series: MTT cytotoxicity assay. It counts as cell-based, Spodoptera frugiperda. The note with it: Spodoptera frugiperda, MTT assay, mean. How it is done:
(§1) The cellular toxicity of the different compounds was evaluated using the MTT assays. […] The selectivity index (SI) was defined as the CC50 to IC50 ratio.

A further series concerns Sf9 cells. Briefly: MTT cytotoxicity assay. It counts as cell-based, Spodoptera frugiperda. How it is done:
as §1

The test system of series [1] is HIV-1 VLP assembly and budding. Put plainly: Electron microscopy of AcMNPV-Gag-infected Sf9 cells and released particles. The conditions noted are these: 5 and 10 µg/ml for 24 h at 24 h pi. Format: cell-based. How it is done:
By contrast, control, untreated AcMNPV-Gag-infected Sf9 cells were decorated with VLP budding in abundance from the plasma membrane ( Fig. 8 , a; and also refer to [12], [28], [30], [32], [33], [53]).
Baculovirus-infected Sf9 cells were harvested at 48 h pi, pelleted, fixed with 2.5% glutaraldehyde in 0.1 M phosphate buffer, pH 7.5, post-fixed with osmium tetroxide (2% in H2O) and treated with 0.5% tannic acid solution in H2O. The specimens were dehydrated and embedded in Epon (Epon-812; Fulham, Latham, NY). Ultrathin sections were stained with 2.6% alkaline lead citrate and 0.5% uranyl acetate in 50% ethanol, and post-stained with 0.5% uranyl acetate solution in H2O [12], [28], [53]. Grids were examined under a Jeol JEM-1400 electron microscope, equiped with an ORIUS™ digitalized camera (Gatan France, 78113-Grandchamp). For statistical EM analyses, a minimum of 30 grid squares containing 10 to 20 cell sections each were examined for counting VLP budding at the cell surface, or budding in intracellular vesicular compartment.

For a further series, the system named is HIV-1. The conditions noted are these: read-out: mean IC50, maturation cleavage of CAp24-SP1 / virus infectivity; cited from earlier work.
For series [2], the system named is HIV-1 VLP assembly and budding. The note with it: cited from earlier work.
For series [3], the system named is HIV-1 VLP assembly and budding. The note with it: 10 µg/ml (17 µM); AcMNPV-Gag-infected Sf9 cells; cited from earlier work.
Where [4] appears, read: read-out: IC50 (µM), 50% inhibitory activity on VLP assembly, Sf9 cells coexpressing Pr55Gag and LucVpr, drug added at 24 h pi for 24 h, mean.
The mark [5] stands for this setting: read-out: IC50 (µg/ml), 50% inhibitory activity on VLP assembly, Sf9 cells coexpressing Pr55Gag and LucVpr, drug added at 24 h pi for 24 h, mean ± SEM, n = 4.

Structures are written as SMILES. ≈ marks a conversion by molar mass, not a printed value. Where two headings read alike, the source gives them in different places.

For orientation: CC50 means the concentration giving 50% cytotoxicity. A low value points to greater toxicity to the cells.

With `C=C(C)[C@@H]1CC[C@]2(C(=O)NC(CCCCN)C(=O)O)CC[C@]3(C)C(CCC4[C@@]5(C)CC[C@H](OC(=O)CC(C)(C)C(=O)O)C(C)(C)C5CC[C@]43C)C12` (some centres unmarked) [EP-62, lysine-conjugated DSB with free lysine ε-NH2 group], in the series on HIV-1 VLP assembly, the “Effect on VLP assembly (in words)” value was “no specific effect on VLP assembly” and the “SI (ratio CC50:IC50)” value came to 0.7. Moreover, the IC50 with HIV-1 VLP assembly (setting [4]) came to 4.8 µM. For the same molecule, the IC50 in the series on HIV-1 VLP assembly (setting [5]) worked out at 3.4 ± 0.4 µg/mL. Also, in “MTT cytotoxicity assay” (Sf9 cells), the midpoint of cytotoxicity, the CC50, lay at 3.5 µM. Also, in the series on Sf9 cells, the “Cytotoxic effect (in words)” value was “pronounced cytotoxic effect”.
With `C=C(C)[C@@H]1CC[C@]2(C(=O)NCC(=O)O)CC[C@]3(C)C(CCC4[C@@]5(C)CC[C@H](OC(=O)CC(C)(C)C(=O)O)C(C)(C)C5CC[C@]43C)C12` (some centres unmarked) [ST-327, Glycine-conjugated DSB], the IC50 with HIV-1 VLP assembly (setting [4]) worked out at 5.9 µM; in the series on HIV-1 VLP assembly (setting [5]), 3.8 ± 1.6 µg/mL. Besides, the “SI (ratio CC50:IC50)” value in the series with HIV-1 VLP assembly is recorded as 5.3. For the same molecule, the midpoint of cytotoxicity in the series “MTT cytotoxicity assay” (Sf9 cells), the CC50, lay at 31.1 µM. In series [1], the “Effect on VLP assembly and budding (EM pattern)” value was “net inhibitory effect on VLP assembly and budding”.
Turning to `C=C(C)[C@@H]1CC[C@]2(C(=O)NCCC(=O)O)CC[C@]3(C)C(CCC4[C@@]5(C)CC[C@H](OC(=O)CC(C)(C)C(=O)O)C(C)(C)C5CC[C@]43C)C12` (stereo partly drawn) [EP-48, beta-alanine-conjugated DSB], the “Effect on VLP assembly (in words)” value with HIV-1 VLP assembly is “no specific effect on VLP assembly”. In “MTT cytotoxicity assay” (Sf9 cells), this molecule registered a CC50 of 4.2 µM. Further, the “Cytotoxic effect (in words)” value in the series with Sf9 cells is “pronounced cytotoxic effect”.
For `C=C(C)[C@@H]1CC[C@]2(C(=O)NCCN)CC[C@]3(C)C(CCC4[C@@]5(C)CC[C@H](OC(=O)CC(C)(C)C(=O)O)C(C)(C)C5CC[C@]43C)C12` (some centres unmarked) [EP-39, ethylene diamine-conjugated DSB], in “MTT cytotoxicity assay” (Sf9 cells), the midpoint of cytotoxicity, the CC50, lay at 120 µM. Also, the IC50 in the series on HIV-1 is 0.016 µM.
As to `C=C(C)[C@@H]1CC[C@]2(C(=O)O)CC[C@]3(C)[C@H](CC[C@@H]4[C@@]5(C)CC[C@H](OC(=O)CC(C)(C)C(=O)O)C(C)(C)[C@@H]5CC[C@]43C)[C@@H]12` [PA-457, 3-O-(3',3'-dimethylsuccinyl)-betulinic acid], the IC50 in series [2] (immuno-radiochemical assay of VLP) is 8 to 10 µM. In addition, the “IC50 on assembly and budding of HIV-1 VLP” value in series [2] (insect cells expressing Pr55Gag, previous study ref 12) is 5 to 6 µg/mL. In addition, the “Effect on VLP budding and egress” value in series [3] was “totally abolished VLP budding and egress”.
With `C=C(C)[C@@H]1CC[C@]2(C(=O)O)CC[C@]3(C)[C@H](CC[C@@H]4[C@@]5(C)CC[C@H](O)C(C)(C)[C@@H]5CC[C@]43C)[C@@H]12` [BA, betulinic acid, reference compound], the IC50 with HIV-1 VLP assembly (setting [4]) is 39.4 µM; in the series with HIV-1 VLP assembly (setting [5]), 18 ± 3 µg/mL. Further, the “SI (ratio CC50:IC50)” value in the series on HIV-1 VLP assembly is given as 1.1. This molecule also gave a CC50 in “MTT cytotoxicity assay” of 43.8 µM.
Consider `C=C(C)[C@@H]1CC[C@]2(C(=O)NC(CCCCNC(=O)OC(C)(C)C)C(=O)O)CC[C@]3(C)C(CCC4[C@@]5(C)CC[C@H](OC(=O)CC(C)(C)C(=O)O)C(C)(C)C5CC[C@]43C)C12` (some centres unmarked) [EP-47, ε-N-tert-butoxycarbonyl-lysine-conjugated DSB], for which the IC50 is 1.9 µM with HIV-1 VLP assembly (setting [4]) and 1 to 2 µg/mL in the series on HIV-1 VLP assembly (setting [5]). Also, the “IC50 (µg/ml), 50% inhibitory activity on VLP assembly” value with HIV-1 VLP assembly (Sf9 cells coexpressing Pr55Gag and LucVpr, drug added at 24 h pi for 24 h, mean ± SEM, n = 4) was 1.6 ± 0.5 µg/mL (≈ 1.97 µM). In addition, the “SI (ratio CC50:IC50)” value with HIV-1 VLP assembly was determined as 13.0. The same molecule returned a CC50 in the series “MTT cytotoxicity assay” (Sf9 cells) of 24.7 µM. Also, the “Effect on VLP assembly and budding (EM pattern)” value in series [1] is “net inhibitory effect on VLP assembly and budding”.

The record behind these values is publication PMC3207847, “Characterization of a Novel Type of HIV-1 Particle Assembly Inhibitor Using a Quantitative Luciferase-Vpr Packaging-Based Assay” (PLoS ONE, 2011).
